Source: patent publication US5132402A, “Adsorbent, method for production thereof, and method for use thereof” (Agency of Industrial Science and Technology, priority 1987, dated 1992)
Where a SMILES comes first, the peptide text is derived from it. Bridges are numbered along the chain shown (N, C = ends).

Experiment: Solubility of the peptide in the phosphate buffer solution used for immobilization
Assay type: physicochemical
Conditions: phosphate buffer solution (0.02 mol/liter) of pH 7.4
Method: (a) The immobilization procedure of Example 2(a) was repeated, except that 20 mg of the peptide obtained in Synthesizing Example 18 was used in place of 20 mg of the peptide obtained in Synthesizing Example 2.

CC(C)C[C@H](NC(=O)[C@H](Cc1ccc(O)cc1)NC(=O)[C@@H]1CCCN1C(=O)[C@@H](NC(=O)[C@H](CC(=O)O)NC(=O)[C@@H]1CCCN1C(=O)[C@@H]1CSSC[C@H](NC(=O)[C@@H](NC(=O)[C@H](Cc2ccc(O)cc2)NC(=O)[C@H](Cc2ccc(O)cc2)NC(=O)[C@@H](NC(=O)[C@H](Cc2c[nH]c3ccccc23)NC(=O)[C@H](Cc2c[nH]cn2)NC(=O)[C@H](CCCCN)NC(=O)[C@H](Cc2c[nH]c3ccccc23)NC(=O)CNC(=O)[C@H](CC(C)C)NC(=O)[C@@H](N)CC(C)C)C(C)C)[C@@H](C)O)C(=O)N1)[C@@H](C)O)C(=O)N[C@@H](CC(=O)O)C(=O)O [Synthesizing Example 18] (H-LLGWKHWVYYTCCPDTPYLD-OH; disulfide 12-13)
solubility in the phosphate buffer solution: low solubility
